What was measured:
male Sprague-Dawley rats = test: Acquisition of morphine intravenous self-administration (prevention of drug addiction); type: in vivo, rat; conditions: 8 days, vs solvent control
Description: The experimental animals and the experimental methods for intravenous self-administration were performed in a similar manner to Example 1, and Test Compounds A and C were used as the test compounds.
To investigate the preventive effect of the test compounds on morphine addiction, rats recovering from surgery were subjected to morphine intravenous self-administration (IVSA) for eight (8) consecutive days, with 2-hours sessions each day, using a fixed ratio of 1 (FR1) (0.1 mg/kg/infusion, 0.1 mL delivered within 4 seconds). Test compounds A and C were dissolved in water containing 0.5% HPMC (hydroxypropyl methylcellulose) and 1% Tween 80, and administered orally at doses of 5 mg/kg and 100 mg/kg, respectively, 2 hours before morphine IVSA. The preventive effects on acquisition of morphine IVSA were measured, and the results are represented in FIGS. 4 and 5.

mGluR5 = molecular target: T1, mGluR5 (Homo sapiens, UniProt P41594); test: Fluorescence-based Ca2+ mobilization assay; conditions: HEK293 cell line overexpressing mGluR5; L-glutamate at EC80; Ca2+ level, FLIPR
T1 construct: expressed in transfected cells; host or cells: HEK293
Description: In order to measure the activity on the mGluR5, an experiment was carried out to check the change in the intracellular Ca^2+ level using the HEK293 cell line permenantly overexpressing the mGluR5. The cells in the cell culture medium were aliquoted into a 384-well plate coated with poly-D-lysine and cultured in a 37° C. incubator supplied with 5% CO2. The next day, the medium was removed and a dye loading buffer—in which a reagent capable of measuring Ca^2+ was dissolved—was added, and then incubated at 37° C. for 60 minutes. The test compounds were dissolved in 100% DMSO at a final concentration of 10 mM to make a stock solution. The starting concentration of 10 μM was prepared from the stock solution, followed by serial dilutions to prepare working solutions (test compound working solutions). The test compound working solutions were added to the cells that were incubated in the dye loading buffer, which were maintained for 30 minutes at room temperature in a light-shielding state before measurement. The Ca^2+ level change induced by L-glutamate at EC80 concentration was measured for 2 minutes using FLIPR Tetra (MDS Analytical Technologies). The fluorescent Ca^2+ signal values in the presence of the test compounds were normalized to the fluorescent singal elicited by EC80 concentration of L-glutamate as 100% and that elicited by vehicle as 0% to estimate % inhibition of the test compounds. The efficacy of the test compounds was calculated as IC50 values and represented in Table 2. (+: 500-1,000 nM, ++: 100-500 nM, +++: less than 100 nM).

human 5-HT2A receptor = molecular target: T2, human 5-HT2A receptor (Homo sapiens, UniProt P28223); test: HTRF-based IP1 accumulation assay; conditions: HEK293 cell line overexpressing human 5-HT2A receptor; serotonin at EC80; IP1 production; read-out: Human 5-HT2AR (IC50)
T2 construct: expressed in transfected cells; host or cells: HEK293
Description: The 5-HT2A receptor antagonistic effect of the test compounds was confirmed by measuring the production amount of IP1 using the HEK293 cell line permanently overexpressing the human 5-HT2A receptor. The test compounds were dissolved in 100% DMSO to a final concentration of 10 mM. The starting concentration of 10 μM was prepared from the stock solution, followed by serial dilutions to prepare working solutions in a buffer containing lithium chloride (LiCl). The cells and compounds prepared in the test buffer were placed in a 96-well plate and incubated at room temperature for 10 minutes. Serotonin of EC80 concentration was added, followed by incubation at 37° C. for 30 minutes in a light-shielding state. To measure IP1 accumulation in cells, IP1-d2 acceptor and IP1-Cryptate donor—which are HTRF-based substances for fluorescence signals—were added and incubated for 1 hour at room temperature in a light-shielded state. The fluorescent emission signals of acceptor and donor were detected, and HTRF ratio values were substracted by mean value of serotonin control. The percentage of activation was calculated by normalization of the serotonin control (0%) and IP1 control (100%). The IC50 values of the test compounds are represented in Table 2. (+: 500-1,000 nM, ++: 100-500 nM, +++: less than 100 nM).

[1] = tested on: neurons in the ventral tegmental area; conditions: cited from earlier work
mouse = mouse tail suspension test; cited from earlier work
test animals [2] = conditions: injected into the amygdala; cited from earlier work
test animals [3] = conditions: injected into the amygdala; cited from earlier work; remark: listed apart in the source
amygdala = conditions: cited from earlier work
rat = rat forced swim test; cited from earlier work
cocaine-addicted rats = conditions: cited from earlier work
[4] = tested on: patients with cocaine use disorder; conditions: 68 patients with cocaine use disorder; cited from earlier work

T1 sequence (P41594 21-1212): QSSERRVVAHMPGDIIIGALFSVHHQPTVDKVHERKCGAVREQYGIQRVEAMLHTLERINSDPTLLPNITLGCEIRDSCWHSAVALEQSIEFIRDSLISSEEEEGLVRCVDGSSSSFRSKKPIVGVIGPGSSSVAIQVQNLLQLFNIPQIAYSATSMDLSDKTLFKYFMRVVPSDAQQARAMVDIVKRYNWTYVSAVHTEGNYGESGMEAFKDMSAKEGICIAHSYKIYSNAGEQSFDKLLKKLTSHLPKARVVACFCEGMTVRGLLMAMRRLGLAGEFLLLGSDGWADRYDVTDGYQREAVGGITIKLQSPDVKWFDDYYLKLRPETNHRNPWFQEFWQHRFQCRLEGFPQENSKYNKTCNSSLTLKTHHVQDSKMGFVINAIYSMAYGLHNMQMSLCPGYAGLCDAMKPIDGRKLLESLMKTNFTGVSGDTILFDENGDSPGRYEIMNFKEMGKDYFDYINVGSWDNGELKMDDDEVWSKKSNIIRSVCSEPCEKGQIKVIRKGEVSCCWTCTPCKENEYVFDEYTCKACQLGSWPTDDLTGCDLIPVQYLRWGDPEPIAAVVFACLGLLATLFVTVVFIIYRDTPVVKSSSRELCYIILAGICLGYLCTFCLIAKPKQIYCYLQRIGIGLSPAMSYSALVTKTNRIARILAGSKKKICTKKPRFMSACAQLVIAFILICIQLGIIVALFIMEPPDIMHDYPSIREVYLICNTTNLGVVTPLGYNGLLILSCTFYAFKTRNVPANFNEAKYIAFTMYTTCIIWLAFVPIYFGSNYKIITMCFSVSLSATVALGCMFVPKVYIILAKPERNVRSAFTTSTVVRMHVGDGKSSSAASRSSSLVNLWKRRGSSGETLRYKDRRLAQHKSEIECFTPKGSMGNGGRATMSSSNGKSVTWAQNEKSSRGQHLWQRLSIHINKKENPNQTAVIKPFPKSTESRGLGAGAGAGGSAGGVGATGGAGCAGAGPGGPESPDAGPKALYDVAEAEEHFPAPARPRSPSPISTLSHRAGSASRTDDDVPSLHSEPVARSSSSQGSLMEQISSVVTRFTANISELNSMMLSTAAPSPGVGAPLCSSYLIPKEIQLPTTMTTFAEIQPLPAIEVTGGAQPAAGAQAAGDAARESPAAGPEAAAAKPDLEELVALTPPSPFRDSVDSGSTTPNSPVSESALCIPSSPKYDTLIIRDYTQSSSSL
T2 sequence (P28223 whole entry): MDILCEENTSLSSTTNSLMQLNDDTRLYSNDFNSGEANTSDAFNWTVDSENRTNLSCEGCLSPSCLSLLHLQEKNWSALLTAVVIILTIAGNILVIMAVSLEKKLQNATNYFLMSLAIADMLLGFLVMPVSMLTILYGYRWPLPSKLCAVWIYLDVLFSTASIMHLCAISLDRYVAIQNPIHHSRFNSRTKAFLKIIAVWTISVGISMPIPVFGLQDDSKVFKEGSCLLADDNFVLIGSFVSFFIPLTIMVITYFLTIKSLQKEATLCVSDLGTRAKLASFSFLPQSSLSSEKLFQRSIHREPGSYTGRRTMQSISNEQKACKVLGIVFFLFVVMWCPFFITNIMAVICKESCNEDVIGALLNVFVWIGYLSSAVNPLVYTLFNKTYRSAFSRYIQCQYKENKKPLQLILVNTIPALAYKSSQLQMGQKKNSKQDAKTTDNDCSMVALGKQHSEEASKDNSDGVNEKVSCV

SMILES	IC50 (mGluR5) [nM]	IC50 (human 5-HT2A receptor) [nM]	further results
O=C(NCC1CCOCC1)c1ccc(C#Cc2ccccc2F)cc1 [Compound 1, 4-((2-fluorophenyl)ethynyl)-N-((tetrahydro-2H-pyran-4-yl)methyl)benzamide]			number of injections (acquisition of morphine self-administration) (male Sprague-Dawley rats; 100 mg/kg orally 2 hours before morphine IVSA, FIG. 5): significantly lower
CC1(CNC(=O)c2ccc(C#Cc3ccccc3F)cc2)COC1 [Compound 6, 4-((2-fluorophenyl)ethynyl)-N-((3-methyloxetan-3-yl)methyl)benzamide]			number of injections (acquisition of morphine self-administration) (male Sprague-Dawley rats; 5 mg/kg orally 2 hours before morphine IVSA, FIG. 4): significantly lower
CC1(O)CC(CNC(=O)c2ccc(C#Cc3ccccc3F)cc2)C1 (stereo not drawn) [Compound 12, 4-((2-fluorophenyl)ethynyl)-N-(((1s,3s)-3-hydroxy-3-methylcyclobutyl)methyl)benzamide]	< 100	100 to 500	
[2H]C(NC(=O)c1ccc(C#Cc2ccccc2F)cc1)C1(C)COC1 (stereo not drawn) [Compound 16, 4-((2-fluorophenyl)ethynyl)-N-((3-methyloxetan-3-yl)methyl-d)benzamide]		100 to 500	
O=C(NC[C@H]1CCOC1)c1ccc(C#Cc2ccc(F)cc2F)cc1 [Compound 18, (R)-4-((2,4-difluorophenyl)ethynyl)-N-((tetrahydrofuran-3-yl)methyl)benzamide]	100 to 500		
O=C(NC[C@@H]1CCOC1)c1ccc(C#Cc2ccc(F)cc2F)cc1 [Compound 19, (S)-4-((2,4-difluorophenyl)ethynyl)-N-((tetrahydrofuran-3-yl)methyl)benzamide]	100 to 500		
CC1(CNC(=O)c2ccc(C#Cc3ccc(F)cc3F)cc2)CCOCC1 [Compound 24, 4-((2,4-difluorophenyl)ethynyl)-N-((4-methyltetrahydro-2H-pyran-4-yl)methyl)benzamide]	< 100	100 to 500	
O=C(NCCC1CCOCC1)c1ccc(C#Cc2ccc(F)cc2F)cc1 [Compound 25, 4-((2,4-difluorophenyl)ethynyl)-N-(2-(tetrahydro-2H-pyran-4-yl)ethyl)benzamide]	100 to 500	< 100	
O=C(NCC1(O)CCCCC1)c1ccc(C#Cc2ccc(F)cc2)cc1 [Compound 26, 4-((4-fluorophenyl)ethynyl)-N-((1-hydroxycyclohexyl)methyl)benzamide]	< 100	100 to 500	
O=C(NCC1(O)CCC1)c1ccc(C#Cc2ccc(F)cc2)cc1 [Compound 27, 4-((4-fluorophenyl)ethynyl)-N-((1-hydroxycyclobutyl)methyl)benzamide]	< 100	< 100	
O=C(NCC1(O)CCCCC1)c1ccc(C#Cc2ccc(F)cc2F)cc1 [Compound 28, 4-((2,4-difluorophenyl)ethynyl)-N-((1-hydroxycyclohexyl)methyl)benzamide]	500 to 1000	100 to 500	
O=C(NCC1(O)CCC1)c1ccc(C#Cc2ccc(F)cc2F)cc1 [Compound 29, 4-((2,4-difluorophenyl)ethynyl)-N-((1-hydroxycyclobutyl)methyl)benzamide]	100 to 500	< 100	
O=C(NCC1CCC1)c1ccc(C#Cc2ccc(F)cc2F)cc1 [Compound 30, N-(cyclobutylmethyl)-4-((2,4-difluorophenyl)ethynyl)benzamide]	100 to 500	100 to 500	
COc1cccc([C@H](O)C2CCN(CCc3ccc(F)cc3)CC2)c1OC [Compound M100907]			dopamine secretion [1]: inhibited
COc1cc(CC(C)N)c(OC)cc1I (stereo not drawn) [DOI, 1-[2,5-dimethoxy-4-iodophenyl]-2-aminopropane]			dopamine secretion [1]: promoted dopamine secretion
Cc1cccc(C#Cc2ccccc2)n1 [MPEP]			immobility time (mouse): decreased immobility time in a dose-dependent manner; time the test animals spend in the bright area (test animals [2]): increased; number of entries into the open arm (test animals [3]): increased; time the test animals spend in the open arm (test animals [3]): increased; formation of long-term potentiation (LTP) in the amygdala (amygdala): inhibiting
Cc1nc(C#Cc2cccnc2)cs1 [MTEP, 3-[(2-methyl-1,3-thiazol-4-yl)ethynyl]pyridine]			immobility time (rat): reducing immobility time
O=C(c1ccc(F)cc1)C1CCN(CCn2c(=O)[nH]c3ccccc3c2=O)CC1 [ketanserin]			cocaine-induced increase in dopamine ([1]; pretreatment): suppressed; self-administration restored by signal stimulation (cocaine-addicted rats): reduced
COC(=O)N1CC[C@@H]2[C@H]1CCC[C@@]2(O)C#Cc1cccc(C)c1 [mavoglurant]			clinical efficacy [4]: confirmed
Cc1nc2sccn2c(=O)c1CCN1CCC(=C(c2ccc(F)cc2)c2ccc(F)cc2)CC1 [ritanserin]			dopamine secretion [1]: inhibited

Source: US20250332138A1, “PHARMACEUTICAL COMPOSITION FOR PREVENTING OR TREATING MENTAL DISORDER” (Vivozon, Inc., priority 2022, published 2025)
